Our source for the Ratio, selectivity ratio and Kcat/Km values is ChEMBL document CHEMBL3525978, “Preferred binding orientations of phenacetin in CYP1A1 and CYP1A2 are associated with isoform-selective metabolism” (Drug Metab Dispos, 2012).

Common to all, as to format: ADME
Series [1] in a line: Ratio of Kcat for CYP1A2 (unknown origin) expressed in Escherichia coli DH5alpha to Kcat for CYP1A1 (unknown origin) expressed in Escherichia coli DH5alpha. The following applies: human.
The subject of another series is CYP1A1, CYP1A2. The series can be described thus: Ratio of Km for CYP1A1 (unknown origin) expressed in Escherichia coli DH5alpha to Km for CYP1A2 (unknown origin) expressed in Escherichia coli DH5alpha. The following applies: human.
The target of another series is T1, Cytochrome P450 1A1 (Homo sapiens, UniProt P04798).
T1 sequence (P04798 whole entry): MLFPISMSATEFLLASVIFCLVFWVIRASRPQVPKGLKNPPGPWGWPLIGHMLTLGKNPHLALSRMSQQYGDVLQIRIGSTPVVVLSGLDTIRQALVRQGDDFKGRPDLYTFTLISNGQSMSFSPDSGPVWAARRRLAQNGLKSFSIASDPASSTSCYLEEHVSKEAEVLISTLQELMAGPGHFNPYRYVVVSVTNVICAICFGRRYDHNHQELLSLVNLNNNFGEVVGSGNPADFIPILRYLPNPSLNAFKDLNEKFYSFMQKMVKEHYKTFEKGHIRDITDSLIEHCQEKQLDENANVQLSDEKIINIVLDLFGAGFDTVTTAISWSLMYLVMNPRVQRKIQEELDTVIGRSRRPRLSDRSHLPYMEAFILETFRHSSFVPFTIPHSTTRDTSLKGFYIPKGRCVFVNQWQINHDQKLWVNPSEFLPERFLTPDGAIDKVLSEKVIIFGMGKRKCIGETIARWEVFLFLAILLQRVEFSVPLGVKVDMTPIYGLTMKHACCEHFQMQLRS
The series can be described thus: Ratio of Kcat to Km for CYP1A1 (unknown origin) expressed in Escherichia coli DH5alpha preincubated for 5 mins before NADPH addition measured after 30 mins by HPLC analysis. The following applies: 0.5 h.

For a further series, the target named is T2, Cytochrome P450 1A2 (Homo sapiens, UniProt P05177).
T2 sequence (P05177 whole entry): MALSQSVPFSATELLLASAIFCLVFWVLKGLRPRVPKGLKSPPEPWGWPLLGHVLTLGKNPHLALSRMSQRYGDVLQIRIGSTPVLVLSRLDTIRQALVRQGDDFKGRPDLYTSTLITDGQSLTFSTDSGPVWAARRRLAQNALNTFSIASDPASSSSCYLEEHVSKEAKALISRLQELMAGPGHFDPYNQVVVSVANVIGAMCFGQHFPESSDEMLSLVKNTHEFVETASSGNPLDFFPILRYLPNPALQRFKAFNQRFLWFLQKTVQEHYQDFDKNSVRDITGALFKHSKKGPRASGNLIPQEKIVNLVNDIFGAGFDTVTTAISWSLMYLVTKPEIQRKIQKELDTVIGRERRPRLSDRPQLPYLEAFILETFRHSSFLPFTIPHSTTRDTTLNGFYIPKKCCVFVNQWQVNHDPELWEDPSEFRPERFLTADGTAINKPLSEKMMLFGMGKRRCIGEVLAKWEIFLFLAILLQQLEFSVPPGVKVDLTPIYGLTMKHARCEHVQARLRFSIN
The series can be described thus: Ratio of Kcat to Km for CYP1A2 (unknown origin) expressed in Escherichia coli DH5alpha preincubated for 5 mins before NADPH addition measured after 30 mins by HPLC analysis. The following applies: 0.5 h.

`CCOc1ccc(NC(C)=O)cc1` [PHENACETIN]: the Ratio in series [1] turned out to be 2.5. In the series on CYP1A1, CYP1A2, the selectivity ratio stood at 8.
With `CC(=O)Nc1ccc(O)cc1` [ACETAMINOPHEN], the Kcat/Km is reported as 0.001 on Cytochrome P450 1A1 and 0.018 at Cytochrome P450 1A2.
